The record followed here is ChEMBL document CHEMBL5729517, “BTK inhibitor compounds” (2023).

The target of assay [1] is Tyrosine-protein kinase BTK (Homo sapiens, UniProt Q06187). In words: BTK and EGFR in Vitro Assay: The BTK and EGFR biochemical assays utilize LANTHASCREEN® Eu Kinase Binding Assays from Thermo Fisher Scientific, measuring the binding of the kinase with a […] tracer. The assay buffer consists of 50 mM HEPES pH 7.5, 0.01% BRU™-35, 10 mM MgCl2, 1 mM EGTA, and 1 mM DTT. The test compounds are diluted and added to the assay plate with a Labcyte ECHO® 555 liquid handler. The compounds are tested in 10 point dose response curves (100 μM-0.005 μM) with a maximum DMSO concentration of 1%. The assays are performed in 20 μL in low-volume 384-well white proxiplates. For the BTK assay, the concentration of full-length His-labeled BTK in the assay is 5 nM, the Eu-anti-His antibody is 2 nM, and the kinase tracer 236 is 60 nM. For the EGFR assay, the concentration of truncated (amino acids 668-1210) GST-labeled EGFR is 5 nM, the Eu-anti-GST antibody is 2 nM, and the kinase tracer 199 is 10 nM. The components of the assay (compound, enzyme/antibody, tracer) are assembled and incubated for 30 min prior to being read on a Perkin-Elmer EnVision with excitation at 340 nm, tracer emission at 665 nm, and antibody emission at 615 nm. The signal ratio is converted to percent inhibition using the following equation: % Inhibition=100−[(Test Compound−Median Minimum)/(Median Maximum−Median Minimum)×100]. For orientation: TR-FRET usually uses a lanthanide donor and a delayed reading to cut background.

The target of assay [2] is Epidermal growth factor receptor (Homo sapiens, UniProt P00533). In words: BTK and EGFR in Vitro Assay: The BTK and EGFR biochemical assays utilize LANTHASCREEN® Eu Kinase Binding Assays from Thermo Fisher Scientific, measuring the binding of the kinase with a fluorinated tracer. The assay buffer consists of 50 mM HEPES pH 7.5, 0.01% BRU™-35, 10 mM MgCl2, 1 mM EGTA, and 1 mM DTT. […] The compounds are tested in 10 point dose response curves (100 μM-0.005 μM) with a maximum DMSO concentration of 1%. The assays are performed in 20 μL in low-volume 384-well white proxiplates. […] The signal ratio is converted to percent inhibition using the following equation: % Inhibition=100−[(Test Compound−Median Minimum)/(Median Maximum−Median Minimum)×100].
Epidermal growth factor receptor, sequence (P00533 whole entry): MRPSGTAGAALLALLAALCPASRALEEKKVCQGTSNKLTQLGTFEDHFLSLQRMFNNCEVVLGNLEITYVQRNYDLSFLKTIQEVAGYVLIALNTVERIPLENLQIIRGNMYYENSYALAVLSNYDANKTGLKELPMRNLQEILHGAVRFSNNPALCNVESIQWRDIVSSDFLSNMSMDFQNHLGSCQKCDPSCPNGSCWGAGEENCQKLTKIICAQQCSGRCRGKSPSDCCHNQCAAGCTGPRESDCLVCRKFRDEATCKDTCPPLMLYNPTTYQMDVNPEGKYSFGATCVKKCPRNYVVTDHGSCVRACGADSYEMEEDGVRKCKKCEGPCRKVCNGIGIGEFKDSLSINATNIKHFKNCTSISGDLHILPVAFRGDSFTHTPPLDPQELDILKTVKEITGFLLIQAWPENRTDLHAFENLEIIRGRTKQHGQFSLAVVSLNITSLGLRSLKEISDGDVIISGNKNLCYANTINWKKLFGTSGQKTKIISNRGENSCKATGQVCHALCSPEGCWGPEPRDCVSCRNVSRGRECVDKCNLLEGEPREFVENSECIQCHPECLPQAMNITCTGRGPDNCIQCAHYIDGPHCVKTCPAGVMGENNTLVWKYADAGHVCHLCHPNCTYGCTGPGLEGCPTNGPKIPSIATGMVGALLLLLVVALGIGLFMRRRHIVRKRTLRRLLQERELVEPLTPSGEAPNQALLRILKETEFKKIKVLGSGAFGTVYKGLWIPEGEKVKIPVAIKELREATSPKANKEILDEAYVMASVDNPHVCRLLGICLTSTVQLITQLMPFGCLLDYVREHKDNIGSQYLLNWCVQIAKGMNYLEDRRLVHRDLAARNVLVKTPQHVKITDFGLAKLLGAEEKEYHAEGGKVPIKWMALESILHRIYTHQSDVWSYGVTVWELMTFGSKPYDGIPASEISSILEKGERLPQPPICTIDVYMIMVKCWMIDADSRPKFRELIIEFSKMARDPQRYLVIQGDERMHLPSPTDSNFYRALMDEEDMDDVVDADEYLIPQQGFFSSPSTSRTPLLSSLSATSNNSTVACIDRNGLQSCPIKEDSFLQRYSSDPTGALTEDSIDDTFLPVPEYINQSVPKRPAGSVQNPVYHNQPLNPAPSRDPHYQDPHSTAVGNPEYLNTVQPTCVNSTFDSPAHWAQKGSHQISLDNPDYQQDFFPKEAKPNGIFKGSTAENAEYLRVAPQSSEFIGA

Tyrosine-protein kinase BTK, sequence (Q06187 whole entry, the tested form may be a part): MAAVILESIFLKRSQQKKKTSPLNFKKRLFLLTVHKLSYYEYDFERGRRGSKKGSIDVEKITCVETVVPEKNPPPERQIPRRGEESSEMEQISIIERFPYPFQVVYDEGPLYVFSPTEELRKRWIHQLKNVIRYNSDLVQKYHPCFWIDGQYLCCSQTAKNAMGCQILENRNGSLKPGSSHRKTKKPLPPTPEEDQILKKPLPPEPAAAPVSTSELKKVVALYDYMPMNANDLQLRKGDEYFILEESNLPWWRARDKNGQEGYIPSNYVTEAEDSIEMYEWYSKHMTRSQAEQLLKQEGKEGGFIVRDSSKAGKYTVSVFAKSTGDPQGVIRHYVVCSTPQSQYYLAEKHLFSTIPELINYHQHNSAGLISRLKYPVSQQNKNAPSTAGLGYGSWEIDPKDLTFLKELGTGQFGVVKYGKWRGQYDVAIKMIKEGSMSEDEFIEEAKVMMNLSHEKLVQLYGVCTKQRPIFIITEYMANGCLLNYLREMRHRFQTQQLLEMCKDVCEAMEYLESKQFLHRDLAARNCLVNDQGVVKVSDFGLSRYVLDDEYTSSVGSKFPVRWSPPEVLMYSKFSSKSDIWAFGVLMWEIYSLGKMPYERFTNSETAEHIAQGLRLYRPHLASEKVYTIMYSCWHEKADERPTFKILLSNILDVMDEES

Broadly, the IC50 is the concentration that gives 50% inhibition. In the case of `C=CC(=O)N1CC[C@H](Nc2cncc(-c3cnc(Nc4cccc(OC(F)F)c4)nc3)c2)C1`, the IC50 came to 0.00608 µM in assay [1] and 8.65 µM in assay [2].
Taken in the same sequence, the figures for `C=CC(=O)N1CC[C@H](Nc2cncc(-c3cnc(Nc4cccc(C)n4)nc3)c2)C1` were 0.0329 µM and 16.1 µM.
Consider `C=CC(=O)N1CC[C@H](Nc2cncc(-c3cnc(Oc4cccc(OC(F)F)c4)nc3)c2)C1`, for which the IC50 in assay [1] came to 0.0555 µM; in assay [2] it was 28.5 µM.
With `C=CC(=O)N1CC(Nc2cncc(-c3cnc(Oc4cccc(C#N)c4)nc3)c2)C1`, the IC50 in assay [1] worked out at 0.0758 µM; in assay [2], 6.52 µM.
